Measured values: patent US11311613B2, “Development of agonist epitopes of the human papillomavirus” (priority 2016, dated 2022)
Entries after “also recorded” stand apart in the source; their conditions may differ. Where two headings read alike, the source gives them in different places.

Columns and labels:
[1] = tested on: CaSki cervical carcinoma cell line (HPV16 E6 and E7 positive HLA-A2 positive); test: Lysis of CaSki tumor cells by peptide-specific CTLs; format: cell-based, human; parameters: key to Lysis: + denotes a greater level than the native epitope; = denotes the same level as the native epitope; − denotes a lower level than the native epitope; conditions: for % specific lysis (SD), CaSki (HLA-A2+ HPV E6+ and E7+): CTLs at IVS5, effector-to-target ratio 25:1; for Lysis: level compared with the native epitope; for lysis of CaSki cervical carcinoma cells (in words): compared to T cells generated with the native epitope counterpart
Source text: (§1) HPV-specific T cells were generated using infection of dendritic cells (DCs) with Ad-HPV followed by stimulation of the T cells with each agonist and native peptide. In particular, DCs were infected with Ad5 HPV at 20,000 MOI. Infected DCs were used to generate specific CTLs using autologous PBMC. Autologous DCs were used as APCs for three in vitro stimulations (IVS). Autologous peptide-pulsed B cells were used to re-stimulate antigen-specific CTLs for two additional IVS. CTLs were used at IVS5.
(§2) Results are expressed in % specific lysis (SD). Effector-to-target ratio used was 25:1. CTLs were established from a normal HLA-A2 donor. CaSki is a cervical carcinoma cell line (HPV16 E6 and E7 positive HLA-A2 positive). ASPC-1 is a pancreatic cancer cell line (HPV16 E6 and E7 negative HLA-A2 negative).

[2] = tested on: ASPC-1 pancreatic cancer cell line (HPV16 E6 and E7 negative HLA-A2 negative); test: Lysis of ASPC-1 control cells by peptide-specific CTLs; format: cell-based, human; conditions: CTLs at IVS5, effector-to-target ratio 25:1; for % specific lysis (SD), ASPC-1 (HLA-A2neg HPV E6neg and E7neg): Table 4; for % specific lysis (SD), ASPC-1: Table 5
Source text: as §1, §2
as §2, with “HN-4 and HN-12 cells are head and neck squamous” for “CaSki is a cervical”, “lines (HLA-A2” for “line (HPV16 E6 and E7 positive HLA-A2”

[3] = tested on: CTL (T cells); test: IFN-γ production by CTL stimulated by autologous B cells pulsed with corresponding peptide; format: cell-based, human; parameters: key to IFN-γ: + denotes a greater level than the native epitope; = denotes the same level as the native epitope; − denotes a lower level than the native epitope; conditions: for interferon production (in words): T cells stimulated by peptide-pulsed autologous B cells
Source text: Autologous B cells were pulsed with each native and agonist E6 peptides to stimulate production of interferon by T cells.
Autologous B cells were pulsed with each native and agonist E7 peptides to stimulate production of interferon by T cells.

[4] = molecular target: T1, HLA-A2 molecules (Homo sapiens, UniProt P04439, D140Y/D185E/D98H/E176V/E277Q/G131W/G231S/I119V/I121R/I166T/I218V/L300P/L318F/N151K/N90K/P208A/P217A/Q86G/Q94H/R138H/R169H/T345S); test: T2A2 binding of HPV-16 E6/E7 peptides to HLA-A2; parameters: T2A2 Binding: unit not given here
T1 construct: endogenous in cells; host or cells: T2A2 cells (T2 cell line expressing HLA-A2; only the column head names it)

[5] = tested on: HN-4 head and neck squamous carcinoma cell line (HLA-A2 positive); test: Lysis of HN-4 cells by peptide-specific CTLs; format: cell-based, human; conditions: for % specific lysis (SD), HN-4: CTLs at IVS5, effector-to-target ratio 25:1; for lysis of HN-4 (in words): compared to native counterparts
Source text: as §1
as §2, with “HN-4 and HN-12 cells are head and neck squamous” for “CaSki is a cervical”, “lines (HLA-A2” for “line (HPV16 E6 and E7 positive HLA-A2”

[6] = tested on: HN-12 head and neck squamous carcinoma cell line (HLA-A2 positive); test: Lysis of HN-12 cells by peptide-specific CTLs; format: cell-based, human; conditions: for % specific lysis (SD), HN-12: CTLs at IVS5, effector-to-target ratio 25:1; for lysis of HN-12 (in words): compared to native counterparts
Source text: as §1
as §2, with “HN-4 and HN-12 cells are head and neck squamous” for “CaSki is a cervical”, “lines (HLA-A2” for “line (HPV16 E6 and E7 positive HLA-A2”

[7] = tested on: HPV-specific T cell lines; test: IFN-γ production by HPV-specific T cell lines stimulated with Ad5-infected human dendritic cells; format: cell-based; conditions: for activation of T cells directed against the epitope (in words): human DCs infected with Ad-5[E1,E2b^neg]HPV
Description: Human DC (6 day culture in IL-4 and GM-CSF) were infected with Ad5 [E1,E2b]-HPV vector and Ad5 [E1,E2b]-Null at 1×10^5/well (24-well plate) in 0.5 ml of AIM-V. Ad5 vectors were used at 20,000 MOI for 1 hour and then 1.5 ml of AIM-V were added to each well. Infected DCs were incubated for 48 hours and then washed and used for stimulation of human antigen-specific T cells. Results are expressed in pg of IFN-γ per 5×10^5 T cells/ml. DC only=<0.73 pg/ml.

[8] = CTL line stimulated by autologous B cells pulsed with corresponding HPV-16 E6 peptide
[9] = E6 CTL line, autologous B cells with NO peptide
[10] = level compared with the native epitope
[11] = DCs infected with Ad5 [E1,E2b]-HPV (20,000 MOI)
[12] = DCs infected with Ad5 [E1,E2b]-Null (20,000 MOI)
[13] = CTL line stimulated by autologous B cells pulsed with corresponding HPV-16 E7 peptide
[14] = E7 CTL line, autologous B cells with NO peptide

| Sequence | % specific lysis (SD), CaSki (HLA-A2+ HPV E6+ and E7+) [1] | % specific lysis (SD), ASPC-1 (HLA-A2neg HPV E6neg and E7neg) [2] | IFN-γ [3, 8] [pg/mL] | IFN-γ [3, 9] [pg/mL] | T2A2 Binding ([4]; binding to HLA-A2) | Lysis [1] | interferon production (in words) [3] | % specific lysis (SD), HN-4 [5] | % specific lysis (SD), HN-12 [6] | IFN-γ [7, 11] | IFN-γ [7, 12] | IFN-γ ([7]; DCs only (uninfected)) | IFN-γ ([7]; No DCs) | % specific lysis (SD), ASPC-1 [2] | IFN-γ [3, 13] [pg/mL] | IFN-γ [3, 14] [pg/mL] | further results |
| --- | --- | --- | --- | --- | --- | --- | --- | --- | --- | --- | --- | --- | --- | --- | --- | --- | --- |
| KISEYRHYC [E6-2, reference compound] | 45.1 (2.8) % | 0.5 (0.7) % | 455 | <15.6 |  |  |  |  |  |  |  |  |  |  |  |  |  |
| KISEYRHYV [E6-A2] | 24.2 (1.2) % | 0.2 (0.5) % | 172 | <15.6 | 877 | − | produced more interferon than the agonist counterpart |  |  |  |  |  |  |  |  |  | IFN-γ [3, 10]: − |
| KLPQLCTEL [E6-1, reference compound] | 34.1 (3.6) % | 2.4 (0.6) % | 264 | <15.6 |  |  |  | 21.2 (4.4) % | 16.5 (1.7) % | 114 pg of IFN-γ per 5×10^5 T cells/ml | <0.73 pg of IFN-γ per 5×10^5 T cells/ml | 2.17 pg of IFN-γ per 5×10^5 T cells/ml | <0.73 pg of IFN-γ per 5×10^5 T cells/ml | 0.3 (0.9) % |  |  | T2A2 Binding [4]: 853 |
| KLPQLCTEV [E6-A1] | 70.8 (10.7) % | -0.2 (6.6) % | 699 | <15.6 | 1,335 |  | best interferon production | 46.2 (1.1) % | 49.4 (3.1) % | 683 pg of IFN-γ per 5×10^5 T cells/ml | 1.0 pg of IFN-γ per 5×10^5 T cells/ml | <0.73 pg of IFN-γ per 5×10^5 T cells/ml | 0.89 pg of IFN-γ per 5×10^5 T cells/ml | 0.2 (0.9) % |  |  | lysis of HN-4 (in words) [5]: more lysis; lysis of HN-12 (in words) [6]: more lysis; HLA-A2 binding (in words) [4]: strongest; activation of T cells directed against the epitope (in words) [7]: able to activate; lysis of CaSki cervical carcinoma cells (in words) [1]: Enhanced lysis |
| QLYNKPLCDV [E6-A3] | 49.1 (11.9) % | 0.3 (0.9) % | 653 | <15.6 | 1,280 | + |  | 30.6 (5.3) % | 38.4 (7.5) % | 452 pg of IFN-γ per 5×10^5 T cells/ml | 0.78 pg of IFN-γ per 5×10^5 T cells/ml | 8.06 pg of IFN-γ per 5×10^5 T cells/ml | 0.9 pg of IFN-γ per 5×10^5 T cells/ml | 0.5 (0.8) % |  |  | lysis of HN-4 (in words) [5]: more lysis; lysis of HN-12 (in words) [6]: more lysis; A2 Binding [4, 10]: +; activation of T cells directed against the epitope (in words) [7]: able to activate; lysis of CaSki cervical carcinoma cells (in words) [1]: Enhanced lysis |
| QQYNKPLCDL [E6-3, reference compound] | 38.1 (3.3) % | 0.6 (0.2) % | 338 | 121 | 1,020 |  |  | 7.0 (0.4) % | 10.2 (3.8) % | 135 pg of IFN-γ per 5×10^5 T cells/ml | 58.5 pg of IFN-γ per 5×10^5 T cells/ml | <0.73 pg of IFN-γ per 5×10^5 T cells/ml | <0.73 pg of IFN-γ per 5×10^5 T cells/ml | -1.1 (0.7) % |  |  |  |
| RTLEDLLMGT [E7-3, reference compound] | 49.6 (8.7) % | 0.5 (0.1) % |  |  |  |  |  | 25.8 (3.5) % | 34.6 (3.9) % | 560 pg of IFN-γ per 5×10^5 T cells/ml | 70.8 pg of IFN-γ per 5×10^5 T cells/ml | 4.24 pg of IFN-γ per 5×10^5 T cells/ml | <0.73 pg of IFN-γ per 5×10^5 T cells/ml | 1.1 (0.7) % | 338 | <15.6 |  |
| RTLEDLLMGV [E7-A3] | 54.5 (7.3) % | 0.6 (0.1) % |  |  | 1,263 | + | best interferon production | 40.2 (1.8) % | 41.9 (2.9) % | 931 pg of IFN-γ per 5×10^5 T cells/ml | <0.73 pg of IFN-γ per 5×10^5 T cells/ml | <0.73 pg of IFN-γ per 5×10^5 T cells/ml | <0.73 pg of IFN-γ per 5×10^5 T cells/ml | 0.6 (0.7) % | 840 | <15.6 | lysis of HN-4 (in words) [5]: more lysis; lysis of HN-12 (in words) [6]: more lysis; HLA-A2 binding (in words) [4]: strongest; activation of T cells directed against the epitope (in words) [7]: able to activate; lysis of CaSki cervical carcinoma cells (in words) [1]: Enhanced lysis |
| TLHEYMLDL [E7-2, reference compound] | 59.2 (5.3) % | 0.1 (1.0) % |  |  |  |  |  |  |  |  |  |  |  |  | 475 | 95.6 |  |
| TLHEYMLDV [E7-A2] | 41.9 (4.1) % | 0.6 (1.3) % |  |  | 1,529 | − | low and produced more interferon than the agonist counterpart |  |  |  |  |  |  |  | 95.3 | <15.6 | HLA-A2 binding (in words) [4]: strongest; also recorded: good binding; IFN-γ [3, 10]: − |
| YMLDLQPET [E7-1, reference compound] | 39.8 (1.7) % | 0.4 (0.3) % |  |  | 1,105 |  |  |  |  |  |  |  |  |  | 247 | 155.6 |  |
| YMLDLQPEV [E7-A1] | 27.8 (3.6) % | 0.9 (0.6) % |  |  | 1,171 | − |  |  |  |  |  |  |  |  | 230 | <15.6 | IFN-γ [3, 10]: = |
